In one assay the target is c-kit mutant D816V (Homo sapiens (Human), UniProt P10721, D816V/DEL694-753). The experiment in a line: c-Kit mutant D816V biochemical assay (AlphaScreen kinase activity). An outline of the steps:
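AlphaScreen with streptavidin donor and PY30 acceptor beads read phosphotyrosine on biotin-(E4Y)10 substrate (30 nM). Enzyme: E. coli-expressed N-His c-Kit D816V, residues 551-934 lacking kinase insert 694-753. Reaction 30 min at room temperature, 10 μM ATP, 5% DMSO; IC50 fitted over 8 three-fold dilutions.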
(In general: Bead proximity is the source of the signal in Alpha formats.)

In assay [1] the test system is BaF3-FL KIT D816V or BaF3-FL KIT V560G/D816V cell line. The experiment in a line: Cell-based assays of c-Kit mutant kinase activity (cell proliferation, ATPlite). The following applies: at least one of the c-kit cell assays of Example 7. An outline of the steps: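 BaF3 cells dependent on transfected full-length human KIT D816V or V560G/D816V (pCI-Neo, CMV promoter) were seeded at 1×10^4 cells/well and exposed to 8-point 1:3 dilutions from 10 μM top (0.2% DMSO) for three days at 37° C. ATPlite luminescence gave cell number; IC50 from concentration-response.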

24 compounds from US9771369B2, “Compounds and methods for kinase modulation, and indications therefor” (Plexxikon Inc., priority 2014, dated 2017) can be followed below.

As a reminder, the IC50 is the concentration at which inhibition is half-maximal. Lower therefore signals greater potency in that assay.

c-kit mutant D816V, sequence (P10721 other isoform, or with tags, fused parts or gaps D816V/del 694-753): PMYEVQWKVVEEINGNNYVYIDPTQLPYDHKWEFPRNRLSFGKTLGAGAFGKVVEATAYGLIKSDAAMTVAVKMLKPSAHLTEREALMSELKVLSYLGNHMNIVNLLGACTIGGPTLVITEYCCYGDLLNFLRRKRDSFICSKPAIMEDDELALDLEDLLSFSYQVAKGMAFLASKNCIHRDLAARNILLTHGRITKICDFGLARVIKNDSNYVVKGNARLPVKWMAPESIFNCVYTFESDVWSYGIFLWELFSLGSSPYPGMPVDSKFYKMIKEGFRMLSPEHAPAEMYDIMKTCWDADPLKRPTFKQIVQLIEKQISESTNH

Consider `Cc1cc2c(N3CCC(C)(c4nc(C)c(-c5cccc(OC(F)F)c5)[nH]4)CC3)ncnc2[nH]1` [P-3191, 4-[4-[5-[3-(difluoromethoxy)phenyl]-4-methyl-1H-imidazol-2-yl]-4-methyl-1-piperidyl]-6-methyl-7H-pyrrolo[2,3-d]pyrimidine], for which the values for the IC50 (on c-kit mutant D816V; in assay [1]) were 0.0001 to 1 µM and under 10 µM, respectively.

Consider `Cc1nc(C2(C)CCN(c3ncnc4[nH]c(-c5cnn(C(F)F)c5)cc34)CC2)[nH]c1-c1cccc(OC(F)F)c1` [P-3192, 4-[4-[5-[3-(difluoromethoxy)phenyl]-4-methyl-1H-imidazol-2-yl]-4-methyl-1-piperidyl]-6-[1-(difluoromethyl)pyrazol-4-yl]-7H-pyrrolo[2,3-d]pyrimidine], for which the IC50 was 0.0001 to 1 µM on c-kit mutant D816V and under 10 µM in assay [1].

For the compound `COc1ccc(-c2cc3c(N4CCC(C)(c5nc(C)c(-c6cccc(OC(F)F)c6)[nH]5)CC4)ncnc3[nH]2)cn1` [P-3193, 4-[4-[5-[3-(difluoromethoxy)phenyl]-4-methyl-1H-imidazol-2-yl]-4-methyl-1-piperidyl]-6-(6-methoxy-3-pyridyl)-7H-pyrrolo[2,3-d]pyrimidine], the half-inhibitory concentration (IC50) is 0.0001 to 1 µM on c-kit mutant D816V and under 10 µM in assay [1].

`Cc1nc(C2(C)CCN(c3ncnc4[nH]c(-c5ccc(C#N)cc5)cc34)CC2)[nH]c1-c1cccc(OC(F)F)c1` [P-3194, 4-[4-[4-[5-[3-(difluoromethoxy)phenyl]-4-methyl-1H-imidazol-2-yl]-4-methyl-1-piperidyl]-7H-pyrrolo[2,3-d]pyrimidin-6-yl]benzonitrile]: the IC50 against c-kit mutant D816V was 0.0001 to 1 µM; in assay [1], under 10 µM.

Regarding `Cc1nc(C2(C)CCN(c3ncnc4[nH]c(-c5ccc(C#N)cc5)cc34)CC2)[nH]c1-c1ccc(OC(F)F)cc1` [P-3195, 4-[4-[4-[5-[4-(difluoromethoxy)phenyl]-4-methyl-1H-imidazol-2-yl]-4-methyl-1-piperidyl]-7H-pyrrolo[2,3-d]pyrimidin-6-yl]benzonitrile], the IC50 on c-kit mutant D816V is 0.0001 to 1 µM; in assay [1] it was under 10 µM.

`Cc1cc2c(N3CCC(C)(c4nc(C)c(-c5ccc(OC(F)F)cc5)[nH]4)CC3)ncnc2[nH]1` [P-3196, 4-[4-[5-[4-(difluoromethoxy)phenyl]-4-methyl-1H-imidazol-2-yl]-4-methyl-1-piperidyl]-6-methyl-7H-pyrrolo[2,3-d]pyrimidine]: the values for the IC50 (against c-kit mutant D816V; in assay [1]) were 0.0001 to 1 µM and under 10 µM, respectively.

In the case of `CCc1[nH]c(C2CCN(c3ncnc4[nH]c(-c5cnn(C(F)F)c5)cc34)CC2)nc1C` [P-3197, 6-[1-(difluoromethyl)pyrazol-4-yl]-4-[4-(5-ethyl-4-methyl-1H-imidazol-2-yl)-1-piperidyl]-7H-pyrrolo[2,3-d]pyrimidine], the figures for the IC50 (at c-kit mutant D816V; in assay [1]) were 0.0001 to 1 µM and under 10 µM, respectively.

Turning to `CCc1[nH]c(C2CCN(c3ncnc4[nH]c(-c5ccc(C#N)cc5)cc34)CC2)nc1C` [P-3198, 4-[4-[4-(5-ethyl-4-methyl-1H-imidazol-2-yl)-1-piperidyl]-7H-pyrrolo[2,3-d]pyrimidin-6-yl]benzonitrile], the IC50 on c-kit mutant D816V was 0.0001 to 1 µM; in assay [1], under 10 µM.

As for `COc1ccc(-c2[nH]c(C3(C)CCN(c4ncnc5[nH]c(-c6ccc(C(=O)O)cc6)cc45)CC3)nc2C)cc1F` [P-3199, 4-[4-[4-[5-(3-fluoro-4-methoxy-phenyl)-4-methyl-1H-imidazol-2-yl]-4-methyl-1-piperidyl]-7H-pyrrolo[2,3-d]pyrimidin-6-yl]benzoic acid], the IC50 is 0.0001 to 1 µM against c-kit mutant D816V and under 10 µM in assay [1].

In the case of `Cc1nc(C2(C)CCN(c3ncnc4[nH]nc(C)c34)CC2)[nH]c1-c1ccc(Cl)cc1` [P-3200, 4-[4-[5-(4-chlorophenyl)-4-methyl-1H-imidazol-2-yl]-4-methyl-1-piperidyl]-3-methyl-1H-pyrazolo[3,4-d]pyrimidine], the IC50 against c-kit mutant D816V is 0.0001 to 1 µM; in assay [1] it was under 10 µM.

In the case of `Cc1nc(C2(C)CCN(c3ncnc4[nH]nc(C)c34)CC2)[nH]c1-c1cccc(OC(F)F)c1` [P-3201, 4-[4-[5-[3-(difluoromethoxy)phenyl]-4-methyl-1H-imidazol-2-yl]-4-methyl-1-piperidyl]-3-methyl-1H-pyrazolo[3,4-d]pyrimidine], the values for the IC50 (on c-kit mutant D816V; in assay [1]) were 0.0001 to 1 µM and under 10 µM, respectively.

As to `COc1ccc(-c2[nH]c(C3(C)CCN(c4ncnc5[nH]nc(C)c45)CC3)nc2C)cc1F` [P-3202, 4-[4-[5-(3-fluoro-4-methoxy-phenyl)-4-methyl-1H-imidazol-2-yl]-4-methyl-1-piperidyl]-3-methyl-1H-pyrazolo[3,4-d]pyrimidine], the IC50 at c-kit mutant D816V was 0.0001 to 1 µM; in assay [1], under 10 µM.

On to `Cc1nc(C2(C)CCN(c3ncnc4[nH]nc(C)c34)CC2)[nH]c1-c1ccc2c(c1)OC(F)(F)O2` [P-3203, 4-[4-[5-(2,2-difluoro-1,3-benzodioxol-5-yl)-4-methyl-1H-imidazol-2-yl]-4-methyl-1-piperidyl]-3-methyl-1H-pyrazolo[3,4-d]pyrimidine], for which the IC50 at c-kit mutant D816V was 0.0001 to 1 µM; in assay [1], under 10 µM.

With `Fc1ccc(-c2cc3c(N4CCC(c5nnc(-c6ccc(F)cc6)[nH]5)CC4)ncnc3[nH]2)cc1` [P-3206, 6-(4-fluorophenyl)-4-[4-[5-(4-fluorophenyl)-4H-1,2,4-triazol-3-yl]-1-piperidyl]-7H-pyrrolo[2,3-d]pyrimidine], the IC50 against c-kit mutant D816V is 0.0001 to 1 µM; in assay [1], under 10 µM.

As to `COc1cc(-c2cc3c(N4CCC(c5nnc(-c6cccc(OC(F)F)c6)[nH]5)CC4)ncnc3[nH]2)ccn1` [P-3207, 4-[4-[5-[3-(difluoromethoxy)phenyl]-4H-1,2,4-triazol-3-yl]-1-piperidyl]-6-(2-methoxy-4-pyridyl)-7H-pyrrolo[2,3-d]pyrimidine], the IC50 against c-kit mutant D816V was 1 to 10 µM; in assay [1], under 10 µM.

`CCOc1ccc(-c2[nH]c(C3(C)CCN(c4ncnc5[nH]c(-c6ccc(OC)nc6)cc45)CC3)nc2C)cc1F` [P-3209, 4-[4-[5-(4-ethoxy-3-fluoro-phenyl)-4-methyl-1H-imidazol-2-yl]-4-methyl-1-piperidyl]-6-(6-methoxy-3-pyridyl)-7H-pyrrolo[2,3-d]pyrimidine]: the values for the IC50 (against c-kit mutant D816V; in assay [1]) were 0.0001 to 1 µM and under 10 µM, respectively.

Take `CCOc1ccc(-c2[nH]c(C3(C)CCN(c4ncnc5[nH]c(-c6cnn(C(F)F)c6)cc45)CC3)nc2C)cc1F` [P-3210, 6-[1-(difluoromethyl)pyrazol-4-yl]-4-[4-[5-(4-ethoxy-3-fluoro-phenyl)-4-methyl-1H-imidazol-2-yl]-4-methyl-1-piperidyl]-7H-pyrrolo[2,3-d]pyrimidine]: the IC50 on c-kit mutant D816V is 0.0001 to 1 µM; in assay [1] it was under 10 µM.

For the compound `COc1ccc(-c2[nH]c(C3(C)CCN(c4ncnc5[nH]c(-c6ccc(C#N)nc6)cc45)CC3)nc2C)cc1F` [P-3211, 5-[4-[4-[5-(3-fluoro-4-methoxy-phenyl)-4-methyl-1H-imidazol-2-yl]-4-methyl-1-piperidyl]-7H-pyrrolo[2,3-d]pyrimidin-6-yl]pyridine-2-carbonitrile], the IC50 was 0.0001 to 1 µM at c-kit mutant D816V and under 10 µM in assay [1].

For the compound `COc1ccc(-c2[nH]c(C3(C)CCN(c4ncnc5[nH]c(-c6ccc(C(N)=O)cc6)cc45)CC3)nc2C)cc1F` [P-3212, 4-[4-[4-[5-(3-fluoro-4-methoxy-phenyl)-4-methyl-1H-imidazol-2-yl]-4-methyl-1-piperidyl]-7H-pyrrolo[2,3-d]pyrimidin-6-yl]benzamide], the IC50 against c-kit mutant D816V was 0.0001 to 1 µM; in assay [1], under 10 µM.

For `COc1ccc(-c2[nH]c(C3(C)CCN(c4ncnc5[nH]c(-c6ccc(NS(C)(=O)=O)cc6)cc45)CC3)nc2C)cc1F` [P-3213, N-[4-[4-[4-[5-(3-fluoro-4-methoxy-phenyl)-4-methyl-1H-imidazol-2-yl]-4-methyl-1-piperidyl]-7H-pyrrolo[2,3-d]pyrimidin-6-yl]phenyl]methanesulfonamide], the IC50 against c-kit mutant D816V was 0.0001 to 1 µM; in assay [1], under 10 µM.

For `COc1ccc(-c2[nH]c(C3(C)CCN(c4ncnc5[nH]c(-c6ccc(OCC(=O)O)cc6)cc45)CC3)nc2C)cc1F` [P-3214, 2-[4-[4-[4-[5-(3-fluoro-4-methoxy-phenyl)-4-methyl-1H-imidazol-2-yl]-4-methyl-1-piperidyl]-7H-pyrrolo[2,3-d]pyrimidin-6-yl]phenoxy]acetic acid], the figures for the IC50 (against c-kit mutant D816V; in assay [1]) were 0.0001 to 1 µM and under 10 µM, respectively.

For `COc1ccc(-c2[nH]c(C3(C)CCN(c4ncnc5[nH]c(-c6ccc(N7CCOCC7)nc6)cc45)CC3)nc2C)cc1F` [P-3215, 4-[5-[4-[4-[5-(3-fluoro-4-methoxy-phenyl)-4-methyl-1H-imidazol-2-yl]-4-methyl-1-piperidyl]-7H-pyrrolo[2,3-d]pyrimidin-6-yl]-2-pyridyl]morpholine], the values for the IC50 (against c-kit mutant D816V; in assay [1]) were 0.0001 to 1 µM and under 10 µM, respectively.

For the compound `COc1ccc(-c2[nH]c(C3(C)CCN(c4ncnc5[nH]c(-c6ccc(C(N)=O)cc6)cc45)CC3)nc2C)cc1C` [P-3216, 4-[4-[4-[5-(4-methoxy-3-methyl-phenyl)-4-methyl-1H-imidazol-2-yl]-4-methyl-1-piperidyl]-7H-pyrrolo[2,3-d]pyrimidin-6-yl]benzamide], the IC50 was 0.0001 to 1 µM against c-kit mutant D816V and under 10 µM in assay [1].

As for `COc1ccc(-c2[nH]c(C3(C)CCN(c4ncnc5[nH]c(-c6ccc(OCC(=O)O)cc6)cc45)CC3)nc2C)cc1C` [P-3217, 2-[4-[4-[4-[5-(4-methoxy-3-methyl-phenyl)-4-methyl-1H-imidazol-2-yl]-4-methyl-1-piperidyl]-7H-pyrrolo[2,3-d]pyrimidin-6-yl]phenoxy]acetic acid], the values for the IC50 (on c-kit mutant D816V; in assay [1]) were 0.0001 to 1 µM and under 10 µM, respectively.
